In ChEMBL document CHEMBL1140714, “In search of novel agents for therapy of tropical diseases and human immunodeficiency virus” (J Med Chem, 2008):
Calls of active or inactive are those of the source. The rule behind the calls is not given here.

Key:
[1] = Cytotoxicity against mouse J774.1 cells after 48 hrs; format: cell-based; details: read-out: ED50
[2] = system: Plasmodium falciparum; experiment: Antiplasmodial activity against chloroquine-sensitive Plasmodium falciparum; format: functional, organism-based
[3] = system: Leishmania major; experiment: Antileishmanial activity against Leishmania major MHOM/IL/81/FE/BNI infected in BALB/c mouse; format: functional
[4] = system: Staphylococcus aureus; experiment: Antibacterial activity against Staphylococcus aureus assessed as inhibition of biofilm formation; format: functional, organism-based
[5] = system: Trypanosoma brucei brucei; experiment: Antitrypanosomal activity against Trypanosoma brucei brucei TC221; format: functional; details: read-out: ED50 (the source's name)

Row | SMILES | CC50 at 48 h [1] [µM] | Activity [2] | ED50 [3] [µM] | IC50 [2] | Activity [4] | EC50 [5] [µM] | IC50 ([2]; Plasmodium falciparum, read-out: IC50) [µM]
1 | COC(=O)C1C(=O)C(C(=O)OC)[C@H](c2ccccn2)N(CCCCCCCC(=O)O)[C@@H]1c1ccccn1 (some centres undefined) | 33.8 | inactive | 50.34 | – | – | – | –
2 | COC(=O)C1C(=O)C(C(=O)OC)[C@H](c2cccc([N+](=O)[O-])c2)N(Cc2ccc(C)cc2)[C@@H]1c1cccc([N+](=O)[O-])c1 (some centres undefined) | 49.8 | – | >100 | Not Active | inactive | – | –
3 | C=CCN1[C@H](c2ccccc2)C(C(=O)OC)C(=O)C(C(=O)OC)[C@@H]1c1ccccc1 (some centres undefined) | > 100 | – | – | Not Active | inactive | – | –
4 | CC[C@@H]1CC2(C[C@H](CC)N1)C(=O)N(Cc1ccccc1)C(=O)N2c1ccccc1 (some centres undefined) | – | – | – | Not Active | inactive | 20.3 | –
5 | N=C(N)c1ccc(OCCCCCOc2ccc(C(=N)N)cc2)cc1 [PENTAMIDINE ISETHIONATE] | – | – | – | – | – | 0.0027 | –
6 | COC(=O)C1=C(O)C[C@H](c2ccccn2)N(Cc2ccc(C)cc2)[C@@H]1c1ccccn1 | 34.9 | – | 83.83 | – | inactive | 0.47 | –
7 | COC(=O)C1C(=O)C(C(=O)OC)[C@H](c2ccccn2)N(CCOCCO)[C@@H]1c1ccccn1 (some centres undefined) | 38.5 | – | 65.04 | Not Active | inactive | – | –
8 | COC(=O)C1C(=O)C(C(=O)OC)[C@H](c2ccccn2)N(CCO)[C@@H]1c1ccccn1 (some centres undefined) | 31.2 | – | >100 | Not Active | inactive | – | –
9 | C=CCN1[C@H](c2ccccn2)C(C(=O)OC)C(=O)C(C(=O)OC)[C@@H]1c1ccccn1 (some centres undefined) | > 100 | – | >100 | Not Active | inactive | – | –
10 | CCCC[C@@H]1CC2(C[C@H](CCCC)N1)C(=O)NC(=O)N2c1ccccc1 (some centres undefined) | – | – | >100 | Not Active | inactive | 24.4 | –
11 | COC(=O)C1C(=O)C(C(=O)OC)[C@H](c2cccc([N+](=O)[O-])c2)N(Cc2ccccc2)[C@@H]1c1cccc([N+](=O)[O-])c1 (some centres undefined) | > 100 | – | >100 | Not Active | inactive | – | –
12 | COC(=O)C1=C(O)C[C@@H](c2ccccn2)N(Cc2ccccc2)[C@H]1c1ccccn1 | 33.2 | – | 25.97 | Not Active | inactive | – | –
13 | O/N=C/C1CCN(CCCc2ccccc2)CC1 | > 100 | – | >100 | – | inactive | > 100 | –
14 | NCCCC(N)(C(=O)O)C(F)F (centres undefined) [EFLORNITHINE] | – | – | – | – | – | 22.9 | –
15 | COC(=O)C1C(=O)C(C(=O)OC)[C@H](c2cccc([N+](=O)[O-])c2)N(Cc2ccc(OC)cc2)[C@@H]1c1cccc([N+](=O)[O-])c1 (some centres undefined) | > 100 | – | >100 | Not Active | inactive | – | –
16 | COC(=O)C1C(=O)[C@H](C(=O)OC)C(c2ccccn2)N[C@@H]1c1ccccn1 (some centres undefined) | > 100 | – | >100 | Not Active | inactive | – | –
17 | ON=C1CCN(CCCc2ccccc2)CC1 | – | – | – | – | inactive | – | 26
18 | COC(=O)C1=C(O)C[C@H](c2ccccn2)N(Cc2cccc(OC)c2)[C@@H]1c1ccccn1 | > 100 | – | >100 | – | inactive | > 100 | –
19 | COC(=O)C1=C(O)C[C@H](c2ccccn2)N(Cc2ccc(OC)cc2)[C@@H]1c1ccccn1 | 29.9 | – | 30 | – | inactive | 0.43 | –
20 | COC(=O)C1C(=O)C(C(=O)OC)[C@H](c2cccc([N+](=O)[O-])c2)N(Cc2ccc(Cl)cc2)[C@@H]1c1cccc([N+](=O)[O-])c1 (some centres undefined) | 46.6 | – | >100 | Not Active | inactive | – | –
